From PubChem BioAssay AID220 (DTP/NCI, 2004)
“And” between values parts separate entries of the source, which are not always exact repeats. Identical values can stand only once. Inconclusive results are not listed. Positions of bridges follow the written chain, without caps; N, C: chain ends. Non-standard residues stand in square brackets, D forms with d. Residues, ends and D or L forms follow the SMILES beside them. Chains are numbered I, II in the order given. *: point of attachment. Quinoxaline2carbonyl = O=C(c1cnc2ccccc2n1)*; NMeV = CN[CH](C(=O)O)C(C)C; NMeC = CN[CH](CS)C(=O)O

Tested on: CD8F1 mice, subcutaneous mammary adenocarcinoma, T/C%
Assay: NCI In Vivo Anticancer Drug Screen. Data for tumor model Mammary Adenocarcinoma CD8F1 (subcutaneous) in CD8F1
Conditions: higher = larger tumour
Summary of the method: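 Transplantable tumors were established in mice, animals were dosed with compound or vehicle, and survival or tumor size was then measured in both groups. The treated result was divided by the control result.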

[1] = endpoint: median tumor weight change, dose: 25.0 mg/kg/injection, schedule: Q01DX001 (ip), vehicle: suspension in saline
[2] = endpoint: median tumor weight change, dose: 50.0 mg/kg/injection, schedule: Q01DX001 (ip), vehicle: saline with Tween-80
[3] = endpoint: median tumor weight (est.), dose: 3.12 mg/kg/injection, schedule: Q07DX005 (ip), vehicle: saline with Tween-80
[4] = endpoint: median tumor weight (est.), dose: 6.25 mg/kg/injection, schedule: Q07DX005 (ip), vehicle: saline with Tween-80
[5] = endpoint: median tumor weight (est.), dose: 12.5 mg/kg/injection, schedule: Q07DX005 (ip), vehicle: saline with Tween-80
[6] = endpoint: median tumor weight (est.), dose: 25.0 mg/kg/injection, schedule: Q07DX005 (ip), vehicle: saline with Tween-80
[7] = endpoint: median tumor weight change, dose: 125.0 mg/kg/injection, schedule: Q01DX001 (ip), vehicle: saline with Tween-80
[8] = endpoint: median tumor weight change, dose: 250.0 mg/kg/injection, schedule: Q01DX001 (ip), vehicle: saline with Tween-80
[9] = endpoint: median tumor weight change, dose: 500.0 mg/kg/injection, schedule: Q01DX001 (ip), vehicle: saline with Tween-80
[10] = endpoint: median tumor weight (est.), dose: 6.25 mg/kg/injection, schedule: Q07DX005 (ip), vehicle: saline
[11] = endpoint: median tumor weight (est.), dose: 12.5 mg/kg/injection, schedule: Q07DX005 (ip), vehicle: saline
[12] = endpoint: median tumor weight (est.), dose: 25.0 mg/kg/injection, schedule: Q07DX005 (ip), vehicle: saline
[13] = endpoint: median tumor weight change, dose: 1000.0 mg/kg/injection, schedule: Q01DX001 (ip), vehicle: saline with Tween-80

COC1/C=C\C=C(/C)C(=O)NC2=CC(=O)C=C(C2=O)C(OC)C(C)CC(OC)C(OC)C(C)/C=C(/C)C1OC(N)=O (stereo not given)
T/C (endpoint: median tumor weight change, dose: 1.88 mg/kg/injection, schedule: Q01DX001 (ip), vehicle: Klucel (hydroxypropylcellulose) (HPC)): 103 % of control | T/C (endpoint: median tumor weight change, dose: 3.75 mg/kg/injection, schedule: Q01DX001 (ip), vehicle: Klucel (hydroxypropylcellulose) (HPC)): 46 % of control

Cc1nc(N)nc(N)c1-c1ccc(Cl)c(Cl)c1
T/C (endpoint: mean tumor weight (est.), dose: 10.0 mg/kg/injection, schedule: Q07DX003 (ip), vehicle: saline with Tween-80): 120 % of control | T/C (endpoint: median tumor weight change, dose: 12.5 mg/kg/injection, schedule: Q01DX001 (ip), vehicle: saline with Tween-80): 20 % of control | T/C (endpoint: median tumor weight change, dose: 12.5 mg/kg/injection, schedule: Q01DX001 (ip), vehicle: suspension in saline): 79 % of control | T/C (endpoint: median tumor weight change, dose: 25.0 mg/kg/injection, schedule: Q01DX001 (ip), vehicle: saline with Tween-80): 50 % of control | T/C [1]: 38 % of control | T/C [2]: 8 % of control | T/C (endpoint: median tumor weight change, dose: 50.0 mg/kg/injection, schedule: Q01DX001 (ip), vehicle: suspension in saline): 12 % of control

CC1=CC2c3cccc4[nH]cc(c34)CC2N(C)C1 (stereo not given)
T/C [1]: 115 % of control

c1ccc2c(NCCCCCCCCNc3c4ccccc4nc4ccccc34)c3ccccc3nc2c1
T/C (endpoint: median tumor weight (est.), dose: 5.0 mg/kg/injection, schedule: Q07DX005 (ip), vehicle: Klucel (hydroxypropylcellulose) (HPC)): 72 % of control | T/C (endpoint: median tumor weight (est.), dose: 10.0 mg/kg/injection, schedule: Q07DX005 (ip), vehicle: Klucel (hydroxypropylcellulose) (HPC)): 56 % of control | T/C (endpoint: median tumor weight (est.), dose: 20.0 mg/kg/injection, schedule: Q07DX005 (ip), vehicle: Klucel (hydroxypropylcellulose) (HPC)): 57 % of control | T/C (endpoint: median tumor weight (est.), dose: 40.0 mg/kg/injection, schedule: Q07DX005 (ip), vehicle: Klucel (hydroxypropylcellulose) (HPC)): 46 % of control

Cc1cc(N(CC(C)Br)CC(C)Br)ccc1N=Nc1ccccc1C(=O)O (stereo not given)
T/C (endpoint: median tumor weight (est.), dose: 1.56 mg/kg/injection, schedule: Q07DX005 (ip), vehicle: saline with Tween-80): 79 % of control | T/C [3]: 94 % of control | T/C [4]: 68 % of control | T/C [5]: 47 % of control | T/C [6]: 23 % of control

CCCCNc1ccc2nnc(C)n2n1
T/C (endpoint: median tumor weight change, dose: 62.5 mg/kg/injection, schedule: Q01DX001 (ip), vehicle: DMSO): 111 % of control | T/C (endpoint: median tumor weight change, dose: 125.0 mg/kg/injection, schedule: Q01DX001 (ip), vehicle: DMSO): 118 % of control

CC(=O)OCC1OC([S-])C(OC(C)=O)C(OC(C)=O)C1OC(C)=O.CC[PH+](CC)CC.CC[PH+](CC)CC.[Au].[Au] (stereo not given)
T/C (endpoint: median tumor weight change, dose: 6.25 mg/kg/injection, schedule: Q01DX001 (ip), vehicle: Klucel (hydroxypropylcellulose) (HPC)): 63 % of control | T/C (endpoint: median tumor weight change, dose: 12.5 mg/kg/injection, schedule: Q01DX001 (ip), vehicle: Klucel (hydroxypropylcellulose) (HPC)): 109 % of control

C[C@]12C=CC(=O)C=C1CC[C@@H]1[C@@H]2[C@@H](O)C[C@@]2(C)[C@H]1CC[C@]2(O)C(=O)CO
T/C (endpoint: median tumor weight change, dose: 100.0 mg/kg/injection, schedule: Q01DX001 (ip), vehicle: Klucel (hydroxypropylcellulose) (HPC)): 111 % of control | T/C (endpoint: median tumor weight change, dose: 200.0 mg/kg/injection, schedule: Q01DX001 (ip), vehicle: Klucel (hydroxypropylcellulose) (HPC)): 67 % of control and 87 % of control and 90 % of control | T/C (endpoint: median tumor weight change, dose: 800.0 mg/kg/injection, schedule: Q01DX001 (ip), vehicle: Klucel (hydroxypropylcellulose) (HPC)): 32 % of control and 38 % of control and 52 % of control | T/C (endpoint: median tumor weight change, dose: 1600.0 mg/kg/injection, schedule: Q01DX001 (ip), vehicle: Klucel (hydroxypropylcellulose) (HPC)): 14 % of control

C[n+]1cccc(NC(=O)c2ccc(NC(=O)C34CCC(C(=O)Nc5ccc(C(=O)Nc6ccc[n+](C)c6)cc5)(CC3)CC4)cc2)c1
T/C [2]: 57 % of control and 78 % of control (2×) | T/C (endpoint: median tumor weight change, dose: 200.0 mg/kg/injection, schedule: Q01DX001 (ip), vehicle: saline with Tween-80): -66 % of control

OC(C1CO1)C(O)C1CO1 (stereo not given)
T/C (endpoint: median tumor weight (est.), dose: 0.5 mg/kg/injection, schedule: Q07DX005 (ip), vehicle: saline): 49 % of control | T/C (endpoint: median tumor weight (est.), dose: 1.0 mg/kg/injection, schedule: Q07DX005 (ip), vehicle: saline): 28 % of control | T/C (endpoint: median tumor weight (est.), dose: 2.0 mg/kg/injection, schedule: Q07DX005 (ip), vehicle: saline): 37 % of control | T/C (endpoint: median tumor weight (est.), dose: 4.0 mg/kg/injection, schedule: Q07DX005 (ip), vehicle: saline): 13 % of control | T/C (endpoint: median tumor weight (est.), dose: 8.0 mg/kg/injection, schedule: Q07DX005 (ip), vehicle: saline): 5 % of control

O=C1[C@H]2CCC[C@H]2[C@H]2CCC[C@@H]12
T/C (endpoint: median tumor weight change, dose: 62.5 mg/kg/injection, schedule: Q01DX001 (ip), vehicle: saline with Tween-80): 51 % of control | T/C [7]: 44 % of control | T/C [8]: 60 % of control | T/C [9]: 35 % of control

O=C1C2CC=CCC2C(=O)N1SC(Cl)(Cl)Cl (stereo not given)
T/C [3]: 78 % of control | T/C [4]: 70 % of control | T/C [5]: 89 % of control | T/C [6]: 74 % of control

O=[N+]([O-])O.[Ga]
T/C (endpoint: mean tumor weight, dose: 75.0 mg/kg/injection, schedule: Q01DX009 (ip), vehicle: saline): 120 % of control | T/C [10]: 94 % of control | T/C [11]: 114 % of control | T/C (endpoint: median tumor weight (est.), dose: 25.0 mg/kg/injection, schedule: Q04DX005 (ip), vehicle: saline): 91 % of control | T/C (endpoint: median tumor weight (est.), dose: 25.0 mg/kg/injection, schedule: Q07DX004 (ip), vehicle: saline): 120 % of control | T/C [12]: 120 % of control | T/C (endpoint: median tumor weight (est.), dose: 50.0 mg/kg/injection, schedule: Q07DX004 (ip), vehicle: saline): 184 % of control | T/C (endpoint: median tumor weight (est.), dose: 100.0 mg/kg/injection, schedule: Q04DX005 (ip), vehicle: saline): 153 % of control

CO[C@@]12[C@@H]3N[C@@H]3CN1C1=C(C(=O)C(NCC3CCCO3)=C(C)C1=O)[C@@H]2COC(N)=O (stereo not given in full)
T/C (endpoint: median tumor weight change, dose: 6.25 mg/kg/injection, schedule: Q01DX001 (ip), vehicle: distilled water + Tween-80): 44 % of control

CC(/C=N/N=C(N)N)=N\N=C(N)N
T/C [10]: 100 % of control | T/C [11]: 85 % of control | T/C [12]: 110 % of control | T/C (endpoint: median tumor weight (est.), dose: 100.0 mg/kg/injection, schedule: Q07DX005 (ip), vehicle: saline): 67 % of control

Nc1ccc2ccc(NS(=O)(=O)N3CCCCC3)cc2c1
T/C [7]: 66 % of control | T/C [8]: 73 % of control | T/C [9]: 87 % of control | T/C [13]: 31 % of control

CCn1cnc2c(=S)nc[nH]c21
T/C [7]: 66 % of control | T/C [8]: 50 % of control | T/C [9]: 64 % of control | T/C [13]: 39 % of control

c1cnc2ncncc2n1
T/C [5]: 84 % of control and 100 % of control | T/C [6]: 93 % of control and 100 % of control | T/C (endpoint: median tumor weight (est.), dose: 50.0 mg/kg/injection, schedule: Q07DX005 (ip), vehicle: saline with Tween-80): 69 % of control and 84 % of control | T/C (endpoint: median tumor weight (est.), dose: 100.0 mg/kg/injection, schedule: Q07DX005 (ip), vehicle: saline with Tween-80): 92 % of control and 99 % of control

CC(/C=C/c1ccccc1)=Nc1ccccc1
T/C [7]: 107 % of control | T/C [8]: 97 % of control | T/C [9]: 99 % of control

CC1NC(=O)C(NC(=O)c2cnc3ccccc3n2)COC(=O)C(C(C)C)N(C)C(=O)C2CSSCC(C(=O)N(C)C(C(C)C)C(=O)OCC(NC(=O)c3cnc4ccccc4n3)C(=O)NC(C)C(=O)N2C)N(C)C1=O (stereo not given) (I: Quinoxaline2carbonyl-SA[NMeC][NMeV] / II: Quinoxaline2carbonyl-SA[NMeC][NMeV]; ester I:1-II:C, I:C-II:1; disulfide I:3-II:3; configuration not given here)
T/C (endpoint: median tumor weight change, dose: 25.0 micrograms/kg/injection, schedule: Q01DX001 (ip), vehicle: Klucel (hydroxypropylcellulose) (HPC)): 77 % of control | T/C (endpoint: median tumor weight change, dose: 50.0 micrograms/kg/injection, schedule: Q01DX001 (ip), vehicle: Klucel (hydroxypropylcellulose) (HPC)): 91 % of control | T/C (endpoint: median tumor weight change, dose: 100.0 micrograms/kg/injection, schedule: Q01DX001 (ip), vehicle: Klucel (hydroxypropylcellulose) (HPC)): 89 % of control | T/C (endpoint: median tumor weight change, dose: 200.0 micrograms/kg/injection, schedule: Q01DX001 (ip), vehicle: Klucel (hydroxypropylcellulose) (HPC)): 68 % of control | T/C (endpoint: median tumor weight change, dose: 400.0 micrograms/kg/injection, schedule: Q01DX001 (ip), vehicle: Klucel (hydroxypropylcellulose) (HPC)): 59 % of control

ClCCCCCCCCCCc1ccccc1
T/C (endpoint: median tumor weight (est.), dose: 12.5 mg/kg/injection, schedule: Q07DX005 (ip), vehicle: Klucel (hydroxypropylcellulose) (HPC)): 87 % of control | T/C (endpoint: median tumor weight (est.), dose: 25.0 mg/kg/injection, schedule: Q07DX005 (ip), vehicle: Klucel (hydroxypropylcellulose) (HPC)): 88 % of control | T/C (endpoint: median tumor weight (est.), dose: 100.0 mg/kg/injection, schedule: Q07DX005 (ip), vehicle: Klucel (hydroxypropylcellulose) (HPC)): 71 % of control | T/C (endpoint: median tumor weight (est.), dose: 200.0 mg/kg/injection, schedule: Q07DX005 (ip), vehicle: Klucel (hydroxypropylcellulose) (HPC)): 71 % of control | T/C (endpoint: median tumor weight (est.), dose: 400.0 mg/kg/injection, schedule: Q07DX005 (ip), vehicle: Klucel (hydroxypropylcellulose) (HPC)): 72 % of control
